“And” between values parts separate entries of the source, which are not always exact repeats. Equal entries are not always repeated. Where two headings read alike, the source gives them in different places.
Experiments:
[1] = Stability in sodium phosphate buffer; type: physicochemical; conditions: sodium phosphate buffer 0.15 M pH 7.4, 57 min, room temperature, n = 4
[2] = Stability of formulated radioligand in saline containing ethanol; type: physicochemical; conditions: saline containing ethanol (10% v/v), 1 h, room temperature, HPLC
Plasma free fraction = type: in vitro ADME; conditions: rhesus monkey plasma, pre-blocked condition (JNJ16259685 3 mg/kg i.v.), n = 3
[3] = Stability in monkey whole blood and plasma; type: in vitro ADME; conditions: 30 min, room temperature
[4] = Emergence of radiometabolites in monkey plasma; type: in vivo, rhesus monkey
mGluR1 [5] = biological target: T1, mGluR1 (Macaca mulatta, UniProt I2CU04); conditions: baseline
[6] = monkey brain homogenates, 30 min, room temperature
[7] = cited from earlier work
mGluR1 [8] = biological target: T1, mGluR1; experiment: Two-tissue compartmental modeling of PET data
mGluR1 [9] = biological target: T1, mGluR1; conditions: cited from earlier work; for peak uptake in mGluR1-rich cerebellum: rhesus monkey
mGluR1 [10] = conditions: read-out: IC50 (mGluR1 affinity); mGluR1 radioligand affinity; cited from earlier work

T1 sequence (I2CU04 19-1195): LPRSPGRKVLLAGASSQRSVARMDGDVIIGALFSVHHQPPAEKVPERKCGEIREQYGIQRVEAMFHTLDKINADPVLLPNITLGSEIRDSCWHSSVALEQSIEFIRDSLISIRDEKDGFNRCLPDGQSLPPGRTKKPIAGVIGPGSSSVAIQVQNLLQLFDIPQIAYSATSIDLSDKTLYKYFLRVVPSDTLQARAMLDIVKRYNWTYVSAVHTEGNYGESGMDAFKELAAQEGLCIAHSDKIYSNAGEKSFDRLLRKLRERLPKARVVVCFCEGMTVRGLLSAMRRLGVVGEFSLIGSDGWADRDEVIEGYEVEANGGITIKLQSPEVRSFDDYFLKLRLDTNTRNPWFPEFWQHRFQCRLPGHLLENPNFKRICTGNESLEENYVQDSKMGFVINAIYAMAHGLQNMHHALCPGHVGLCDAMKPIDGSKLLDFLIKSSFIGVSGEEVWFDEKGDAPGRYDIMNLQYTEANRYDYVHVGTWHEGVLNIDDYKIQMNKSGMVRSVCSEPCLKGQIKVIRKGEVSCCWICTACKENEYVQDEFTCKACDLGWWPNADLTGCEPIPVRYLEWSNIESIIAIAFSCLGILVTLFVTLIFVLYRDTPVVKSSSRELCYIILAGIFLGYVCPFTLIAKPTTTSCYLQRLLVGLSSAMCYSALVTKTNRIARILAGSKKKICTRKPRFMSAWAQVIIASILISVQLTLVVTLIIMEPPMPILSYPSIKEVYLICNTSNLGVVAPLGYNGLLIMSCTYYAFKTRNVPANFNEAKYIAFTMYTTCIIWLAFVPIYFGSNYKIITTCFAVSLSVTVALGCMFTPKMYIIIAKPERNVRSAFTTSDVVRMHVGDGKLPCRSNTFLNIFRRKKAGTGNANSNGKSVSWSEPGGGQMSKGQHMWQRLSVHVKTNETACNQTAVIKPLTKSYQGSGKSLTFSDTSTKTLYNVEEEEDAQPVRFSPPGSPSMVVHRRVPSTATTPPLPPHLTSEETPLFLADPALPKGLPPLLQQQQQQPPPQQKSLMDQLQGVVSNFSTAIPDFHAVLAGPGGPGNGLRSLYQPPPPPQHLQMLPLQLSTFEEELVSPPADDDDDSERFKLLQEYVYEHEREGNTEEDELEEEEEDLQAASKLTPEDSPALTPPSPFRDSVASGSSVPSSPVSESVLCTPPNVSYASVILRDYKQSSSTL

CNc1cc(-c2csc(N(C)C(=O)c3ccc(F)cc3)n2)ncn1 [[^11C]FIMX, [carbonyl-^11C]4-Fluoro-N-methyl-N-(4-(6-(methylamino)pyrimidin-4-yl)thiazol-2-yl)benzamide]
remaining fraction of original radiochemical purity in buffer [1]: 79.1 ± 3.3% | unchanged radioligand in formulation [2]: > 97% | plasma free fraction (fP) (Plasma free fraction): 0.042 ± 0.003 | unchanged radioligand in plasma ([3]; monkey plasma): 91% | unchanged radioligand in whole blood ([3]; monkey whole blood): 92% | percentage of total plasma radioactivity represented by parent ([4]; baseline, 10 min after i.v. injection): 31% | percentage of total plasma radioactivity represented by parent ([4]; baseline, 30 min after i.v. injection): 21% | percentage of total plasma radioactivity represented by parent ([4]; preblocked condition, 10 min after i.v. injection): 43% | percentage of total plasma radioactivity represented by parent ([4]; preblocked condition, 30 min after i.v. injection): 31% | peak radioactivity uptake in frontal cortex (mGluR1 [5]): 4.23 SUV | peak radioactivity uptake in hippocampus (mGluR1 [5]): 4.47 SUV | peak radioactivity uptake in occipital cortex (mGluR1 [5]): 3.67 SUV | peak radioactivity uptake in thalamus (mGluR1 [5]): 6.00 SUV | cerebellum radioactivity level at 85 min (mGluR1 [5]; 85 min after injection): 5.74 SUV | decrease of cerebellum radioactivity from peak (mGluR1 [5]; at 85 min after injection): 32% | time of peak regional brain radioactivity uptake (mGluR1 [5]; i.v.): around 12.5 min | peak radioactivity uptake in cerebellum (mGluR1 [5]; receptor-rich cerebellum): 8.50 SUV and 8.5 SUV | unchanged radioligand in brain homogenates [6]: 99.4% | logD obtained without correction for instability [7]: 2.52 | imaging time after which VT appeared stable in all brain regions (mGluR1 [8]; baseline): 60 min | imaging time by which VT is within 10% of terminal value (mGluR1 [8]; baseline scans, two-tissue compartment model): ≤ 40 min | reduction of VT in cerebellum by preblock (mGluR1 [8]; baseline vs preblock with JNJ16259685): ~90% | VT in cerebellum (mGluR1 [8]; rhesus monkey cerebellum, baseline): 13 mL/cm^3

Cc1ccc(C(=O)N(C)c2nc(-c3cc(NC(C)C)ncn3)cs2)cc1 [[^11C]ITDM, [^11C]N-[4-[6-(isopropylamino)pyrimidin-4-yl]-1,3-thiazol-2-yl]-4-methyl-N-methylbenzamide]
peak uptake in mGluR1-rich cerebellum (mGluR1 [9]): < 1.3 SUV

COc1ccc(C(=O)N(C)c2nc(-c3cc(NC(C)C)ncn3)cs2)cc1 [[^11C]ITMM, [^11C]N-[4-[6-(isopropylamino)pyrimidin-4-yl]-1,3-thiazol-2-yl]-4-methoxy-N-methylbenzamide]
peak uptake in mGluR1-rich cerebellum (mGluR1 [9]): < 1.3 SUV

CNc1cc(-c2csc(N(C)C(=O)c3ccc([18F])cc3)n2)ncn1 [[^18F]FIMX, [^18F]4-fluoro-N-methyl-N-(4-(6-(methylamino)pyrimidin-4-yl)thiazol-2-yl)benzamide]
IC50 (mGluR1 [10]): 1.8 nM | decrease of cerebellum radioactivity from peak (mGluR1 [9]; at 90 min after injection): 37%
